{"source": "patent US6784165B1", "about": "“Treatment of heart rhythm disturbances with N6-substituted-5′-(N-substituted) carboxamidoadenosines” (Aderis Pharmaceuticals, Inc., priority 1999, dated 2004)", "system": "adenosine A1 receptor", "assay": "Rat isolated Langendorff heart paced at 360 bpm: AV conduction (S-V interval) and coronary blood flow", "conditions": "at 6.8 nM and 8.3 nM, rat isolated heart", "protocol": "Rat isolated hearts were prepared according to the method of Langendorff in which the coronary vasculature was perfused in a retrograde fashion at constant pressure via the aorta. Coronary blood flow was determined by measuring the volume of fluid leaving the heart. Heart rate was maintained at 360 beats per minute by electrical pacing of the right atrium. Atrioventricular (AV) conduction was determined as the time from the atrial stimulus to the beginning of ventricular depolarization (S-V interval).", "data": [{"smiles": "CCNC(=O)[C@H]1O[C@@H](n2cnc3c(NC4CCCC4)ncnc32)[C@H](O)[C@@H]1O", "note": "[Compound A, ethyl N^6-cyclopentyladenosine-5′-uronamide]", "values": [{"measurement": "effect on coronary blood flow", "result": "no effect"}]}]}
